Usually IC50 stands for the concentration that gives 50% inhibition.

Structures are written as SMILES.

This note sets out measurements from US11986471B2, “Compounds and methods of use” (Tango Therapeutics, Inc., priority 2018, dated 2024).

Assay [1] addresses T1, PRMT5 (Homo sapiens, UniProt O14744).
T1 construct: purchased Viva (custom protein)
In words: PRMT5 IC50 assay with no cofactor. It is filed as biochemical. A digest of the protocol:
(§1)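 Results given as IC50 (μM), from which Ki follows by dividing by 1.5 in the SAM condition or by 13.5 in the MTA condition. The ratio of SAM Ki to MTA Ki indicates MTA-cooperative preference.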

Assay [2] concerns the target T1, PRMT5. In words: PRMT5 IC50 assay in the presence of MTA as cofactor. The class given is biochemical. To be noted: for IC50: PRMT5, MTA as cofactor. In short, it runs like this:
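Three cofactor conditions tested for PRMT5 inhibition: none, MTA and SAM, each giving an IC50. For conversion to Ki, the MTA-condition IC50 is divided by 13.5 and the SAM-condition IC50 by 1.5, and the two Ki values are expressed as a SAM/MTA ratio.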

A further assay concerns HAP1 MTAP-deleted. Briefly: SDMA in-cell western assay, HAP1 MTAP-deleted cell line. The class given is cell-based. To be noted: for IC50: Homo sapiens, HAP1 MTAP-deleted cell line; for MTAP Intact/Deleted Ratio: IC50 ratio HAP1 MTAP-intact / HAP1 MTAP-deleted. In short, it runs like this: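 In-cell western for SDMA marks; MTAP-deleted (null) HAP1 background; values given as IC50.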

The target of assay [3] is T1, PRMT5. In words: PRMT5 IC50 assay in the presence of SAM as cofactor. It is filed as biochemical. A digest of the protocol: as §1
In another assay the test system is HAP1 MTAP-intact. In words: SDMA in-cell western assay, HAP1 MTAP-intact cell line. The class given is cell-based. To be noted: Homo sapiens. A digest of the protocol: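 Using an MTAP-isogenic HAP1 cell pair, inhibition of SDMA formation is read by in-cell western and expressed as IC50. MTAP-selectivity is assigned where the ratio between lines reaches 3 fold or greater.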

[4] abbreviates: ratio between Ki in the presence of SAM and Ki in the presence of MTA.
[5] abbreviates: ratio between the Ki in the presence of SAM and the Ki in the presence of MTA.

T1 sequence (O14744 whole entry): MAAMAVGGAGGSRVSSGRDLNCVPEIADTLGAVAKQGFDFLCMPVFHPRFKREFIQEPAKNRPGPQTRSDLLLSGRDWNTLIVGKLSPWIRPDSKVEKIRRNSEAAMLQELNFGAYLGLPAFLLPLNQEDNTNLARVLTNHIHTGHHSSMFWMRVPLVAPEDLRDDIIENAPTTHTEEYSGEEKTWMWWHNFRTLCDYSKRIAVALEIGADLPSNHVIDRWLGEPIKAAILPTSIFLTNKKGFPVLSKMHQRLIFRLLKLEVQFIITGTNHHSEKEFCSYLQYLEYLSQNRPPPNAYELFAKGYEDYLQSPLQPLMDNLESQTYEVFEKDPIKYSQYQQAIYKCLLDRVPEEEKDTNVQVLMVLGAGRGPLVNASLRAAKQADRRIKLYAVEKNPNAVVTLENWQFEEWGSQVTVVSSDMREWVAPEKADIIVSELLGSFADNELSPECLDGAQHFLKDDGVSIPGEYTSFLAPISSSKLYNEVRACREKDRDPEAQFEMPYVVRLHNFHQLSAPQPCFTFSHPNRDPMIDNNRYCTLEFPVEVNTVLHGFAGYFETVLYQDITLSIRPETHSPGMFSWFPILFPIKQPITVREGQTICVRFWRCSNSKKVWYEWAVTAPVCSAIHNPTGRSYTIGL
T1 sequence (Q9BQA1 whole entry partner): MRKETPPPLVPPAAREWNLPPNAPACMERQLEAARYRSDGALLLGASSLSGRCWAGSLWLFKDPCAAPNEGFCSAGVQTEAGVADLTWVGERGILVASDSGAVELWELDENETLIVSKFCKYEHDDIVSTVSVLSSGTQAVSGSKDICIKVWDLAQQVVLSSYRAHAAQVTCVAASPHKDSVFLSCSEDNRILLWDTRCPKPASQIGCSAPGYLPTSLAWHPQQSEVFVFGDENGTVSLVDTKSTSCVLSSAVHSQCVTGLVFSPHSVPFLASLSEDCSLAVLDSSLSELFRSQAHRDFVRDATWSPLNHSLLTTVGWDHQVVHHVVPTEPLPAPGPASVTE

In the case of `CCN1CCN(c2cc(C(=O)NC[C@H](O)CN3CCc4cc(OCc5ocnc5C)ccc4C3)cc(NC3CCC3)n2)CC1` [Compound 410, 2-(cyclobutylamino)-6-(4-ethylpiperazin-1-yl)-N-[(2S)-2-hydroxy-3-{6-[(4-methyl-1,3-oxazol-5-yl)methoxy]-1,2,3,4-tetrahydroisoquinolin-2-yl}propyl]pyridine-4-carboxamide], the half-maximal inhibitory concentration (IC50) was 500 to 5000 nM at PRMT5 [1] (read-out: No Co-factor IC50); 50 to 500 nM on PRMT5 [2]; less than 1000 nM in the assay with HAP1 MTAP-deleted; 50 to 500 nM at PRMT5 [3]; less than 1000 nM with HAP1 MTAP-intact. For the same compound, on PRMT5 [2] (setting [4]), the “SAM/MTA Ratio” value was “A (a Ki ratio greater than or equal to 10 fold between the Ki in the presence of SAM and the Ki in the presence of MTA)”. Moreover, the “MTAP Intact/Deleted Ratio” value in the assay on HAP1 MTAP-deleted is “B* (an IC50 ratio greater than or equal to 3 fold but lower than 10 fold between the IC50 in the HAP1 MTAP-intact cell line and the HAP1 MTAP-deleted cell line)”.

In the case of `COc1ccc(C(=O)N2CCc3cc(C(=O)NC[C@H](O)CN4CCc5cc(OCc6cnco6)ccc5C4)ccc3C2)cc1` [Compound 547, (S)—N-(2-hydroxy-3-(6-(oxazol-5-ylmethoxy)-3,4-dihydroisoquinolin-2(1H)-yl)propyl)-2-(4-methoxybenzoyl)-1,2,3,4-tetrahydroisoquinoline-6-carboxamide], the IC50 lay within 500 to 5000 nM on PRMT5 [1]; 50 to 500 nM on PRMT5 [2]; 1000 to 10000 nM in the assay on HAP1 MTAP-deleted; 50 to 500 nM at PRMT5 [3]; 1000 to 10000 nM in the assay on HAP1 MTAP-intact. Also, the “SAM/MTA Ratio” value at PRMT5 [2] (setting [5]) was “A (a Ki ratio greater than or equal to 10 fold between the Ki in the presence of SAM and the Ki in the presence of MTA)”. In the assay with HAP1 MTAP-deleted, the “MTAP Intact/Deleted Ratio” value was “C* (an IC50 ratio of less than 3 fold between the IC50 in the HAP1 MTAP-intact cell line and the HAP1 MTAP-deleted cell line)”.

Turning to `O=C(NC[C@H](O)CN1CCc2c(ccc(OCc3cnco3)c2Cl)C1)c1cc(NC2COC2)nc(N2CCOCC2)n1` [Compound 298, (S)—N-(3-(5-chloro-6-(oxazol-5-ylmethoxy)-3,4-dihydroisoquinolin-2(1H)-yl)-2-hydroxypropyl)-2-morpholino-6-(oxetan-3-ylamino)pyrimidine-4-carboxamide], the IC50 is not below 5000 nM at PRMT5 [1] (read-out: No Co-factor IC50); 500 to 5000 nM on PRMT5 [2]; 1000 to 10000 nM with HAP1 MTAP-deleted; 500 to 5000 nM on PRMT5 [3]; not below 10000 nM in the assay with HAP1 MTAP-intact. Besides, the “SAM/MTA Ratio” value on PRMT5 [2] (setting [4]) was “A (a Ki ratio greater than or equal to 10 fold between the Ki in the presence of SAM and the Ki in the presence of MTA)”. In addition, in the assay with HAP1 MTAP-deleted, the “MTAP Intact/Deleted Ratio” value was “C* (an IC50 ratio of less than 3 fold between the IC50 in the HAP1 MTAP-intact cell line and the HAP1 MTAP-deleted cell line)”.

As to `O=C(NC[C@H](O)CN1CCc2c(ccc(OCc3cnco3)c2Br)C1)c1ccnc(NC2CCCC2)c1` [Compound 404, (S)—N-(3-(5-bromo-6-(oxazol-5-ylmethoxy)-3N-dihydroisoquinolin-2(1H)-yl)-2-hydroxypropyl)-2-(cyclopentylamino)isonicotinamide], the IC50 at PRMT5 [1] (read-out: No Co-factor IC50) was not below 5000 nM; on PRMT5 [2] it was 50 to 500 nM; with HAP1 MTAP-deleted, not below 10000 nM; on PRMT5 [3], 50 to 500 nM; in the assay with HAP1 MTAP-intact it was not below 10000 nM. For the same compound, the “SAM/MTA Ratio” value at PRMT5 [2] (setting [4]) is “A (a Ki ratio greater than or equal to 10 fold between the Ki in the presence of SAM and the Ki in the presence of MTA)”. Moreover, the “MTAP Intact/Deleted Ratio” value in the assay with HAP1 MTAP-deleted is “C* (an IC50 ratio of less than 3 fold between the IC50 in the HAP1 MTAP-intact cell line and the HAP1 MTAP-deleted cell line)”.

With `Cc1ncoc1COc1ccc2c(c1)CCN(C[C@@H](O)CNC(=O)c1cc(NC3CCC3)nc(N3CCN(C)CC3)c1)C2` [Compound 485, 2-(cyclobutylamino)-N-[(2S)-2-hydroxy-3-{6-[(4-methyl-1,3-oxazol-5-yl)methoxy]-1,2,3,4-tetrahydroisoquinolin-2-yl}propyl]-6-(4-methylpiperazin-1-yl)pyridine-4-carboxamide], the half-maximal inhibitory concentration (IC50) on PRMT5 [1] was 500 to 5000 nM; at PRMT5 [2], 50 to 500 nM; in the assay on HAP1 MTAP-deleted, less than 1000 nM; on PRMT5 [3], 50 to 500 nM; in the assay with HAP1 MTAP-intact it was less than 1000 nM. The “SAM/MTA Ratio” value on PRMT5 [2] (setting [5]) is “A (a Ki ratio greater than or equal to 10 fold between the Ki in the presence of SAM and the Ki in the presence of MTA)”. The “MTAP Intact/Deleted Ratio” value in the assay with HAP1 MTAP-deleted was “C* (an IC50 ratio of less than 3 fold between the IC50 in the HAP1 MTAP-intact cell line and the HAP1 MTAP-deleted cell line)”.

For `O=C(NC[C@H](O)CN1CCc2c(ccc(OCc3cnco3)c2Cl)C1)c1cc(NC2COC2)nc(N2CCN(C(=O)C3CC3)CC2)n1` [Compound 297, (S)—N-(3-(5-chloro-6-(oxazol-5-ylmethoxy)-3N-dihydroisoquinolin-2(1H)-yl)-2-hydroxypropyl)-2-(4-(cyclopropanecarbonyl)piperazin-1-yl)-6-(oxetan-3-ylamino)pyrimidine-4-carboxamide], the half-maximal inhibitory concentration (IC50) is 500 to 5000 nM on PRMT5 [1] (read-out: No Co-factor IC50); 50 to 500 nM on PRMT5 [2]; 1000 to 10000 nM with HAP1 MTAP-deleted; 50 to 500 nM on PRMT5 [3]; not below 10000 nM with HAP1 MTAP-intact. Besides, the “SAM/MTA Ratio” value on PRMT5 [2] (setting [4]) is “A (a Ki ratio greater than or equal to 10 fold between the Ki in the presence of SAM and the Ki in the presence of MTA)”. Further, the “MTAP Intact/Deleted Ratio” value in the assay on HAP1 MTAP-deleted is “C* (an IC50 ratio of less than 3 fold between the IC50 in the HAP1 MTAP-intact cell line and the HAP1 MTAP-deleted cell line)”.

Take `CCN(C)c1nc(NC2COC2)cc(C(=O)NC[C@H](O)CN2CCc3c(ccc(OCc4cnco4)c3Cl)C2)n1` [Compound 303]: the concentration for half-maximal inhibition (IC50) on PRMT5 [1] (read-out: No Co-factor IC50) was not below 5000 nM; at PRMT5 [2] it was 50 to 500 nM; in the assay on HAP1 MTAP-deleted, 1000 to 10000 nM; on PRMT5 [3], 50 to 500 nM; with HAP1 MTAP-intact, not below 10000 nM. Moreover, at PRMT5 [2] (setting [4]), the “SAM/MTA Ratio” value is “A (a Ki ratio greater than or equal to 10 fold between the Ki in the presence of SAM and the Ki in the presence of MTA)”. In the assay with HAP1 MTAP-deleted, the “MTAP Intact/Deleted Ratio” value was “C* (an IC50 ratio of less than 3 fold between the IC50 in the HAP1 MTAP-intact cell line and the HAP1 MTAP-deleted cell line)”.

For `O=C(NC[C@H](O)CN1CCc2cc(OCc3cnco3)c(F)cc2C1)c1ccnc(NC2CCC2)c1` [Compound 513, 2-(cyclobutylamino)-N-[(2S)-3-[7-fluoro-6-(oxazol-5-ylmethoxy)-3,4-dihydro-1H-isoquinolin-2-yl]-2-hydroxy-propyl]pyridine-4-carboxamide], the IC50 is not below 5000 nM at PRMT5 [1]; 50 to 500 nM at PRMT5 [2]; 1000 to 10000 nM in the assay on HAP1 MTAP-deleted; 500 to 5000 nM on PRMT5 [3]; not below 10000 nM in the assay with HAP1 MTAP-intact. At PRMT5 [2] (setting [5]), the “SAM/MTA Ratio” value is “A (a Ki ratio greater than or equal to 10 fold between the Ki in the presence of SAM and the Ki in the presence of MTA)”. The “MTAP Intact/Deleted Ratio” value with HAP1 MTAP-deleted is “B* (an IC50 ratio greater than or equal to 3 fold but lower than 10 fold between the IC50 in the HAP1 MTAP-intact cell line and the HAP1 MTAP-deleted cell line)”.

Consider `COCCN(C)c1nc(NC2COC2)cc(C(=O)NC[C@H](O)CN2CCc3cc(OCc4cnco4)ccc3C2)n1` [Compound 295, (S)—N-(2-hydroxy-3-(6-(oxazol-5-ylmethoxy)-3N-dihydroisoquinolin-2(1H)-yl)propyl)-2-((2-methoxyethyl)(methyl)amino)-6-(oxetan-3-ylamino)pyrimidine-4-carboxamide], for which the concentration for half-maximal inhibition (IC50) on PRMT5 [1] (read-out: No Co-factor IC50) was 500 to 5000 nM; at PRMT5 [2], 50 to 500 nM; in the assay with HAP1 MTAP-deleted it was less than 1000 nM; at PRMT5 [3], 50 to 500 nM; in the assay with HAP1 MTAP-intact, less than 1000 nM. The “SAM/MTA Ratio” value on PRMT5 [2] (setting [4]) was “A (a Ki ratio greater than or equal to 10 fold between the Ki in the presence of SAM and the Ki in the presence of MTA)”. In addition, the “MTAP Intact/Deleted Ratio” value in the assay on HAP1 MTAP-deleted is “C* (an IC50 ratio of less than 3 fold between the IC50 in the HAP1 MTAP-intact cell line and the HAP1 MTAP-deleted cell line)”.

For the compound `Cc1ncoc1COc1ccc2c(c1C)CCN(C[C@@H](O)CNC(=O)c1cc(NC3CCC3)nc(N3CCN(C(C)C)CC3)c1)C2` [Compound 539, 2-(cyclobutylamino)-N-[(2S)-2-hydroxy-3-{5-methyl-6-[(4-methyl-1,3-oxazol-5-yl)methoxy]-1,2,3,4-tetrahydroisoquinolin-2-yl}propyl]-6-[4-(propan-2-yl)piperazin-1-yl]pyridine-4-carboxamide], the IC50 against PRMT5 [1] is 500 to 5000 nM; on PRMT5 [2], 50 to 500 nM; in the assay with HAP1 MTAP-deleted, not below 10000 nM; at PRMT5 [3], 50 to 500 nM; in the assay with HAP1 MTAP-intact it was not below 10000 nM. The “SAM/MTA Ratio” value on PRMT5 [2] (setting [5]) was “A (a Ki ratio greater than or equal to 10 fold between the Ki in the presence of SAM and the Ki in the presence of MTA)”. Further, the “MTAP Intact/Deleted Ratio” value with HAP1 MTAP-deleted is “C* (an IC50 ratio of less than 3 fold between the IC50 in the HAP1 MTAP-intact cell line and the HAP1 MTAP-deleted cell line)”.

Consider `Cc1ncoc1COc1ccc2c(c1)CCN(C[C@@H](O)CNC(=O)c1cc(NC3CCC3)ncn1)C2` [Compound 374, 6-(cyclobutylamino)-N-[(2S)-2-hydroxy-3-{6-[(4-methyl-1,3-oxazol-5-yl)methoxy]-1,2,3,4-tetrahydroisoquinolin-2-yl}propyl]pyrimidine-4-carboxamide], for which the IC50 is not below 5000 nM on PRMT5 [1] (read-out: No Co-factor IC50); 50 to 500 nM at PRMT5 [2]; less than 1000 nM in the assay with HAP1 MTAP-deleted; 50 to 500 nM on PRMT5 [3]; 1000 to 10000 nM in the assay on HAP1 MTAP-intact. At PRMT5 [2] (setting [4]), the “SAM/MTA Ratio” value was “A (a Ki ratio greater than or equal to 10 fold between the Ki in the presence of SAM and the Ki in the presence of MTA)”. In addition, the “MTAP Intact/Deleted Ratio” value in the assay on HAP1 MTAP-deleted is “C* (an IC50 ratio of less than 3 fold between the IC50 in the HAP1 MTAP-intact cell line and the HAP1 MTAP-deleted cell line)”.
